Test results published in the METLIN SMRT retention time set (Domingo-Almenara et al. 2019).

Assay: gradient 5% acetonitrile 3 min, to 50% in 2 min, to 85% in 15 min, held 3 min, 100 µL/min
Details: column: Zorbax Extend-C18 2.1 x 50 mm; eluents: water / acetonitrile, 0.1% formic acid
Summary of the method: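 Pure standards were run in mixtures of ~100 molecules by HPLC coupled to a quadrupole time-of-flight mass spectrometer. The column was a Zorbax Extend-C18 (2.1 × 50 mm, 1.8 μm) at 100 μL/min, with water and acetonitrile each containing 0.1% formic acid, in positive and negative ionization mode. Dead and dwell volumes were 40 μL and 900 μL. Retention time was taken from computationally picked adduct peaks, each manually inspected, with data collected over 3 months.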

| SMILES | RP-LC retention time |
| --- | --- |
| CCOC(=O)c1[nH]c(C)c(CCC(=O)N2CCC(C(=O)NCCCN3CCCC(C)C3)CC2)c1C (centres undefined) | 604 s |
| CC(C)C(=O)N1CCc2c(c(C(=O)NCc3ccc4c(c3)OCO4)nn2C)C1 | 708 s |
| CCOc1ccccc1CNC(=O)C1CCCN(c2ccc(=O)n(-c3ccc(CC)cc3)n2)C1 (centres undefined) | 978 s |
| O=C1CC(c2ccccc2)N1 (centres undefined) | 646 s |
| O=C1N(c2cccc(F)c2)C(c2ccccc2)C12CCNCC2 (centres undefined) | 669 s |
| Cc1ccccc1NC(=O)C1CCCN(C(=O)c2nn(C)c3c2CN(C(=O)C(C)(C)C)CC3)C1 (centres undefined) | 802 s |
| O=C(CCSc1ccccc1)N1CCN(c2ccc(-c3ccccn3)nn2)CC1 | 644 s |
| CCCCN(CCNC(=O)C1CCCN(c2ncnc3c2nc2n3CCCCC2)C1)Cc1ccco1 (centres undefined) | 656 s |
| CCOC(=O)c1c(N2C(=O)CC(Sc3ccccc3C(=O)O)C2=O)sc(C)c1C (centres undefined) | 821 s |
| CC(C)CNC(=O)C1CCN(c2nc3ccc(-c4cncnc4)nc3s2)CC1 | 663 s |
| OC(COCCOc1c(F)cc(Br)cc1F)CSc1ccccn1 (centres undefined) | 934 s |
| CC(C)NC(=O)c1ccc(OCC2CCN(C(=O)c3ccc(F)cc3)CC2)cc1 | 826 s |
| Cc1oc(-c2[nH]ncc2C(=O)N2CCCC2)cc1S(=O)(=O)Nc1ccc(F)c(F)c1 | 734 s |
| O=C(c1cccs1)N1CCC2(CC1)NC(=O)N(Cc1ccc(Cl)cc1)C2=O | 816 s |
| Cc1nc(CCNC(=O)C2CCN(S(=O)(=O)c3ccc(Br)s3)CC2)cs1 | 759 s |
| COCC(=O)Nc1ccc2c(c1)CCC(=O)N2C | 613 s |
| O=C(Cn1c(=O)oc2ccccc21)N1CCN(S(=O)(=O)C2CC2)CC1 | 670 s |
| O=C(Cc1ccc(-c2ccc(OCCN3CCOCC3)cc2)cn1)NCc1ccccc1 | 621 s |
| O=C(c1ccco1)N1CCCC1c1nc(C2CCOCC2)no1 (centres undefined) | 673 s |
| Cc1ccc(C)c(NC(=O)Cn2cnc3nc(N4CCCC(C(=O)NC5CC5)C4)sc3c2=O)c1 (centres undefined) | 683 s |
| CC(O)(CCc1ccccc1)CNC(=O)CN1C(=O)CCC1=O (centres undefined) | 631 s |
| COc1ccc(S(=O)(=O)N2C[C@H]3CN(S(=O)(=O)c4ccccc4)C[C@@H](C2)O3)cc1 | 893 s |
| c1nc2c(c(NCc3ccc4c(c3)OCO4)n1)CCC2 | 606 s |
| CC(C)Cn1c(=O)c(N2CCN(C(=O)Cc3cccs3)CC2)nc2ccncc21 | 592 s |
| CCCS(=O)(=O)N1CCCN(C2=NS(=O)(=O)C(c3cccc(Cl)c3)=C2C)CC1 | 891 s |

| SMILES | RP-LC retention time |
| --- | --- |
| CCN1CCN(CCNC(=O)c2cccn2-c2nnc(N3CCCCCC3)s2)CC1 | 600 s |
| Cc1nc(-c2csc(S(=O)(=O)N3CCCC(C(=O)NCCN4CCCCCC4)C3)c2)no1 (centres undefined) | 665 s |
| N#CCCN1CCN(C2=NC(=O)/C(=C\c3cccs3)S2)CC1 | 611 s |
| Cc1ccc(NC(=O)C2CCCN(c3cn[nH]c(=O)c3)C2)cc1 (centres undefined) | 679 s |
| O=C(c1cn(-c2cc(N3CCCCC3)ncn2)cn1)N1CCSCC1 | 789 s |
| CC(C)Oc1ccc(CNC(=O)C2CCCN(c3nn4c(=O)c5c(nc4s3)CCCC5)C2)cc1 (centres undefined) | 844 s |
| CCc1ccc(CNC(=O)C2Cc3cc(S(=O)(=O)N4CCCCC4)ccc3N2C(C)=O)cc1 (centres undefined) | 983 s |
| CC(=O)NCc1csc(C2CCCN(C(=O)c3cccn3C)C2)n1 (centres undefined) | 612 s |
| O=C(CCc1cccc2[nH]ccc12)NCc1ccc(N2CCCCC2)cc1 | 612 s |
| CCOc1nn(CC)cc1C(=O)NCCc1c[nH]c2ccccc12 | 736 s |
| CCCN(CC(=O)N1CCc2sccc2C1COc1ccc(F)cc1)C(=O)NCC (centres undefined) | 859 s |
| O=C(c1ccsc1)N1CCCn2cc(-c3ccccc3)nc21 | 640 s |
| CC(C)c1cc(N2CCN(C(=O)c3ccccc3)CC2)nc2nncn12 | 594 s |
| Cc1cc(N(C)C)nc(NCCNC(=O)C2CCCC2)n1 | 545 s |
| CN(C)C(=O)c1n[nH]c2c1CN(C(=O)c1cc(F)cc(F)c1)CC2 | 635 s |
| CC(C)CN1CCN(C(=O)c2ccc(-c3ccnc(N4CCCC4)n3)cc2)CC1 | 587 s |
| CC(C)[Si]1(C(C)C)OCC2OC(n3cnc4c(N)ncnc43)C(N)C2O[Si](C(C)C)(C(C)C)O1 (centres undefined) | 828 s |
| Cc1nc(-c2csc(S(=O)(=O)N3CCC(C(=O)N4CCCCC4)CC3)c2)no1 | 818 s |
| Cn1cc(C(=O)NCc2ccccc2F)c(S(=O)(=O)N2CCSCC2)n1 | 865 s |
| O=C(NC1CCN(c2cc(-c3cccs3)[nH]n2)C1)c1ccccn1 (centres undefined) | 667 s |
| CN1c2cc(C(=O)NC3CCCC3)ccc2C(=O)N2CCCCC21 (centres undefined) | 767 s |
| O=C(NCCN1CCCCC1)C1CCc2sc(C(=O)N3CCCC3)cc2C1 (centres undefined) | 534 s |
| O=C(c1ccc(Nc2nc3ccccc3n3nnnc23)cc1)N1CCN(c2ccccn2)CC1 | 661 s |
| O=C(Nc1ccc(Oc2ccc(NC(=O)Nc3ccccc3Cl)cc2)cc1)Nc1ccccc1Cl | 1250 s |

Next, values leading:

| RP-LC retention time | SMILES |
| --- | --- |
| 830 s | CCN1C(=O)COc2ccc(-c3csc(NC(=O)C(C)C)n3)cc21 |
| 880 s | Cc1ccc(-c2ccc(=O)n(CCCC(=O)N3CCc4ccccc43)n2)cc1 |
| 580 s | COc1ccc(OC)c(NC(=O)N2CCc3nc[nH]c3C2)c1 |
| 912 s | Cc1cccc(-n2c(=O)c3c(cc(C)n3C)n(CC(=O)Nc3ccc(C)cc3C)c2=O)c1 |
| 950 s | CCN(CC)S(=O)(=O)c1cccc(-c2nnc(-c3ccc(OC)c(OC)c3)o2)c1 |
| 732 s | Cc1nc(-c2cnccn2)nc2c1CCC(=O)N2Cc1ccc(F)cc1 |
| 888 s | CCCS(=O)(=O)c1nc2ccc(NS(=O)(=O)c3ccc4c(c3)OCCO4)cc2s1 |
| 595 s | CC(C)NC(=O)CCc1c(-c2ccccc2)nc2ccccn12 |
| 876 s | COc1ccc(C2CC(=O)N(c3cccc(Br)c3)C(=O)C2)cc1OC |
| 831 s | O=C(Cc1ccccc1Br)NC1CCN(c2cc(-c3ccc(Cl)cc3)[nH]n2)C1 (centres undefined) |
| 835 s | CNC(=O)N1CCCC(c2cccc(C(=O)NCc3ccc(OC(C)C)cc3)c2)C1 (centres undefined) |
| 932 s | CCOC(=O)c1nc(Nc2ccc(CC)cc2)c2ccccc2n1 |
| 906 s | Cc1cccc(CN2CC(=O)N(c3ccc(C)c(C)c3)[C@@H]3CS(=O)(=O)C[C@@H]32)c1 |
| 688 s | COc1ccc(OC)c(CNC(=O)Cc2nnc(-c3ccc4ncccc4c3)o2)c1 |
| 1010 s | Cc1cc(N2CCN(C(=O)c3cccc(N(C)C)c3)CC2)nc2nncn12 |
| 894 s | CCOc1cc2c(cc1OCC)C1C(C(=O)NCc3ccc(C)o3)c3ccccc3C(=O)N1CC2 (centres undefined) |
| 1040 s | O=C(CCc1ccccc1)N1CCCC1c1nc(-c2ccccc2Cl)no1 (centres undefined) |
| 758 s | COc1ccc(OC)c(NC(=O)N2CCC(N3CCN(Cc4ccc(C)cc4)C(=O)C3=O)CC2)c1 |
| 1170 s | COc1ccc(C2Cn3nnc(-c4nc(-c5cccc(Br)c5)no4)c3CO2)cc1 (centres undefined) |
| 650 s | COc1ccc(CCNC(=O)c2ccc3[nH]c4c(c3c2)CN(C(C)=O)CC4)cc1OC |

| RP-LC retention time | SMILES |
| --- | --- |
| 603 s | CC(NC(=O)c1cccc(N(C)C)c1)C(=O)Nc1nc2ccccc2[nH]1 (centres undefined) |
| 748 s | Cn1cnc(S(=O)(=O)N2CCC(c3noc(-c4ccccc4)n3)C2)c1 (centres undefined) |
| 798 s | COc1ccc(C2C(C(=O)Nc3ccc4c(c3)OCO4)c3cc(OC)c(OC)cc3C(=O)N2C)cc1 (centres undefined) |
| 710 s | COc1ccc(OCc2noc(CNS(=O)(=O)c3ccc(NC(C)=O)cc3)n2)cc1 |
| 903 s | CCc1nn2c(CNC(=O)c3ccccc3Br)c(-c3ccccc3)nc2s1 |
| 1240 s | COc1ccc(-c2noc(N3CCC(Cc4ccccc4)CC3)n2)cc1OC |
| 642 s | CC(=O)c1ccc(NC(=O)COc2cc(C)nc(N3CCCCCC3)n2)cc1 |
| 1270 s | Clc1ccccc1-c1nc(-c2ccc(-n3cccn3)nc2)no1 |
| 771 s | COc1cc2ncnc(Nc3cccc(Br)c3)c2cc1OC |
| 750 s | CCOc1ccc(NC(=O)C2CC(=O)N(c3ccc4c(c3)CCN4C(C)=O)C2)cc1 (centres undefined) |
| 659 s | CCOC(=O)N1CCN(C2CC(=O)N(CCc3ccc(OC)c(OC)c3)C2=O)CC1 (centres undefined) |
| 1190 s | COc1ccc(OC)c(-c2csc(Nc3ccc(Br)cn3)n2)c1 |
| 894 s | COc1cccc(-c2nnc(Cc3nc(-c4ccc(OC)c(OC)c4)no3)o2)c1 |
| 832 s | CCS(=O)(=O)N1CCCc2cc(C(=O)NCc3ccc4c(c3)OCO4)ccc21 |
| 886 s | CC(C)c1ccc(Nc2nc3ccncc3n(Cc3ccccc3)c2=O)cc1 |
| 671 s | NC(=O)C1CCN(C(=O)CCc2nnc3c4cc(-c5ccc(Cl)cc5)nn4ccn23)CC1 |
| 982 s | Cc1ccc(-c2nc3cnc(Br)cn3c2Nc2ccc3c(c2)OCO3)cc1 |
| 701 s | CCc1ccc(CNc2nc3ccncc3n(CC)c2=O)cc1 |
| 734 s | O=C(COc1ccc(-c2nnc3n2CCCC3)cc1)Nc1ccc(Br)cc1 |
| 559 s | O=C(NCc1ccncc1)c1csc(-c2ccc(N3CCCC3)nc2)n1 |
